The source of these data is ChEMBL document CHEMBL2396541, “Synthesis and in vitro evaluation of glycosyl derivatives of luteinizing hormone-releasing hormone (LHRH)” (Bioorg Med Chem, 2013).

Data set [1] in a line: Half life in human Caco2 cell homogenates at 200 uM by LC-MS analysis. Format: ADME, cell-based. To be noted: Caco-2 cell homogenates.
The test system of a further data set is Caco-2. The data set is described as follows: Prodrug activation in human Caco2 cell homogenates assessed as LHRH release after 2 hrs. The data set is classed as cell-based. To be noted: caco-2, 2 h.
The nature of data set [2]: Apparent permeability across human Caco2 cells at 200 uM up to 120 mins by LC-MS analysis. The data set is classed as ADME, cell-based. To be noted: Caco-2.
Data set [3] can be described thus: Half life in human plasma. The data set is classed as ADME, cell-free.
Data set [4] is described as follows: Half life in human. Format: ADME, organism-based. As to conditions: in vivo; call rule not given here.

In the case of `CC(C)C[C@H](NC(=O)CNC(=O)[C@H](Cc1ccc(O)cc1)NC(=O)[C@H](CO)NC(=O)[C@H](Cc1c[nH]c2ccccc12)NC(=O)[C@H](Cc1cnc[nH]1)NC(=O)[C@H](CCC(=O)O)NC(=O)CCC(=O)N[C@@H]1O[C@H](CO)[C@H](O)[C@H](O)[C@H]1O)C(=O)N[C@@H](CCCNC(=N)N)C(=O)N1CCC[C@H]1C(=O)NCC(N)=O`, the half-life (usually the time in which the quantity being followed falls by half) at 200 µM in data set [1] was 51 min. Moreover, the Drug metabolism entry with Caco-2 is reported as “Not Active”. In addition, the Papp (commonly the rate of passage across a membrane or cell layer, normalised by area and donor concentration) at 2 h, 200 µM in data set [2] was 1.08 ×10⁻⁶ cm/s.

`CC(C)C[C@H](NC(=O)CNC(=O)[C@H](Cc1ccc(O)cc1)NC(=O)[C@H](CO)NC(=O)[C@H](Cc1c[nH]c2ccccc12)NC(=O)[C@H](Cc1cnc[nH]1)NC(=O)[C@@H]1CCC(=O)N1)C(=O)N[C@@H](CCCNC(=N)N)C(=O)N1CCC[C@H]1C(=O)NCC(N)=O` [GONADORELIN] displayed a half-life at 200 µM in data set [1] of 32.6 min. Further, the Papp at 2 h, 200 µM in data set [2] was determined as 0.398 ×10⁻⁶ cm/s. The half-life in data set [3] is 3 min.

On to `CC(C)C[C@H](NC(=O)[C@@H](Cc1c[nH]c2ccccc12)NC(=O)[C@H](Cc1ccc(O)cc1)NC(=O)[C@H](CO)NC(=O)[C@H](Cc1c[nH]c2ccccc12)NC(=O)[C@H](Cc1cnc[nH]1)NC(=O)[C@H](CCC(N)=O)NC(=O)CCC(=O)N[C@@H]1O[C@H](CO)[C@@H](O[C@@H]2O[C@H](CO)[C@H](O)[C@H](O)[C@H]2O)[C@H](O)[C@H]1O)C(=O)N[C@@H](CCCNC(=N)N)C(=O)N1CCC[C@H]1C(=O)NCC(N)=O`, for which the half-life at 200 µM in data set [1] amounted to 133 min. Further, the half-life in data set [4] came out at 3 min.

On to `CC(C)C[C@H](NC(=O)[C@@H](Cc1c[nH]c2ccccc12)NC(=O)[C@H](Cc1ccc(O)cc1)NC(=O)[C@H](CO)NC(=O)[C@H](Cc1c[nH]c2ccccc12)NC(=O)[C@H](Cc1c[nH]cn1)NC(=O)[C@@H]1CCC(=O)N1)C(=O)N[C@@H](CCCNC(=N)N)C(=O)N1CCC[C@H]1C(=O)NCC(N)=O` [TRIPTORELIN], for which the half-life at 200 µM in data set [1] is 186 min.

With `CC(C)C[C@H](NC(=O)CNC(=O)[C@H](Cc1ccc(O)cc1)NC(=O)[C@H](CO)NC(=O)[C@H](Cc1c[nH]c2ccccc12)NC(=O)[C@H](Cc1cnc[nH]1)NC(=O)[C@@H](N)CCC(=O)O)C(=O)N[C@@H](CCCNC(=N)N)C(=O)N1CCC[C@H]1C(=O)NCC(N)=O`, in data set [1], the half-life at 200 µM turned out to be 30.4 min.

With `CC(C)C[C@H](NC(=O)CNC(=O)[C@H](Cc1ccc(O)cc1)NC(=O)[C@H](CO)NC(=O)[C@H](Cc1c[nH]c2ccccc12)NC(=O)[C@H](Cc1cnc[nH]1)NC(=O)[C@H](CCC(=O)O)NC(=O)CCC(=O)N[C@@H]1O[C@H](CO)[C@@H](O[C@@H]2O[C@H](CO)[C@H](O)[C@H](O)[C@H]2O)[C@H](O)[C@H]1O)C(=O)N[C@@H](CCCNC(=N)N)C(=O)N1CCC[C@H]1C(=O)NCC(N)=O`, the half-life at 200 µM in data set [1] stood at 77 min. For the same compound, the Drug metabolism result with Caco-2 is listed as “Not Active”. In data set [2], the Papp at 2 h, 200 µM worked out at 2.87 ×10⁻⁶ cm/s.

In data set [1], `CC(C)C[C@H](NC(=O)CNC(=O)[C@H](Cc1ccc(O)cc1)NC(=O)[C@H](CO)NC(=O)[C@H](Cc1c[nH]c2ccccc12)NC(=O)[C@H](Cc1cnc[nH]1)NC(=O)[C@H](CCC(=O)O)NC(=O)CCC(=O)N[C@@H]1O[C@H](CO)[C@@H](O)[C@H](O)[C@H]1O)C(=O)N[C@@H](CCCNC(=N)N)C(=O)N1CCC[C@H]1C(=O)NCC(N)=O` came in with a half-life at 200 µM of 56.7 min. Further, the Drug metabolism entry with Caco-2 was “Not Active”. Also, the Papp at 2 h, 200 µM in data set [2] turned out to be 2.65 ×10⁻⁶ cm/s.

`CC(C)C[C@H](NC(=O)CNC(=O)[C@H](Cc1ccc(O)cc1)NC(=O)[C@H](CO)NC(=O)[C@H](Cc1c[nH]c2ccccc12)NC(=O)[C@H](Cc1cnc[nH]1)NC(=O)[C@H](CCC(N)=O)NC(=O)CCC(=O)N[C@@H]1O[C@H](CO)[C@H](O)[C@H](O)[C@H]1O)C(=O)N[C@@H](CCCNC(=N)N)C(=O)N1CCC[C@H]1C(=O)NCC(N)=O` yielded a half-life at 200 µM in data set [1] of 92.2 min. In addition, the Drug metabolism result with Caco-2 is recorded as “Not Active”. Besides, the apparent permeability (Papp) at 2 h, 200 µM in data set [2] stood at 1.62 ×10⁻⁶ cm/s.

In data set [1], `CC(C)C[C@H](NC(=O)CNC(=O)[C@H](Cc1ccc(O)cc1)NC(=O)[C@H](CO)NC(=O)[C@H](Cc1c[nH]c2ccccc12)NC(=O)[C@H](Cc1cnc[nH]1)NC(=O)[C@H](CCC(N)=O)NC(=O)CCC(=O)N[C@@H]1O[C@H](CO)[C@@H](O[C@@H]2O[C@H](CO)[C@H](O)[C@H](O)[C@H]2O)[C@H](O)[C@H]1O)C(=O)N[C@@H](CCCNC(=N)N)C(=O)N1CCC[C@H]1C(=O)NCC(N)=O` returned a half-life at 200 µM of 133 min. In addition, in the data set on Caco-2, the Drug metabolism entry is reported as “Not Active”. Further, the apparent permeability (Papp) at 2 h, 200 µM in data set [2] stood at 0.76 ×10⁻⁶ cm/s.

In turn, `CC(C)C[C@H](NC(=O)CNC(=O)[C@H](Cc1ccc(O)cc1)NC(=O)[C@H](CO)NC(=O)[C@H](Cc1c[nH]c2ccccc12)NC(=O)[C@H](Cc1cnc[nH]1)NC(=O)[C@@H](N)CCC(=O)O)C(=O)N[C@@H](CCCNC(=N)N)C(=O)N1CCC[C@H]1C(=O)NCC(=O)N[C@@H]1O[C@H](C(N)=O)[C@@H](O)[C@H](O)[C@H]1O` registered a half-life at 200 µM in data set [1] of 28.4 min.

With `CC(C)C[C@H](NC(=O)CNC(=O)[C@H](Cc1ccc(O)cc1)NC(=O)[C@H](CO)NC(=O)[C@H](Cc1c[nH]c2ccccc12)NC(=O)[C@H](Cc1cnc[nH]1)NC(=O)[C@H](CCC(N)=O)NC(=O)CCC(=O)N[C@@H]1O[C@H](CO)[C@@H](O)[C@H](O)[C@H]1O)C(=O)N[C@@H](CCCNC(=N)N)C(=O)N1CCC[C@H]1C(=O)NCC(N)=O`, the half-life at 200 µM in data set [1] was found to be 73.5 min. Besides, in the data set with Caco-2, the Drug metabolism entry is “Not Active”. The Papp at 2 h, 200 µM in data set [2] amounted to 2.31 ×10⁻⁶ cm/s.
